Assay results taken from patent publication US9493500B2, “Fluorinated pyrimidine analogs and methods of use thereof” (priority 2012, dated 2016).
Read-outs that look alike come from different tables or passages of the source.

Experiments:
[1] = system: various tumor cells lines, both solid and hematologic; assay: Cytotoxicity against various tumor cell lines (overall comparison); assay type: cell-based
[2] = system: DNA methyltransferase (DNMT); assay: In vitro DNA methyltransferase inhibition in HCT-116 cells (EpiQuick kit); assay type: cell-based
Description: The assay was performed using the EpiQuick DNA Methyltransferase Activity/Inhibition Assay Kit (Epigentek, Brooklyn, N.Y.). The […] cells were incubated with 1 μM and 10 μM concentrations of each drug for a period of 24 hours.

HCT-116 = assay: In vitro cytotoxicity (GI50), colon/colorectal cell line; assay type: cell-based
Description: (§1) The in vitro cytotoxicity was measured in the following cell lines: NCI-H460 (ATCC #HTB-177) (non-small cell lung), HCT-116 (ATCC #CCL-247) (colorectal), HL-60 (ATCC #CCL-240) (leukemia), and MDA-MB-231 (ATCC #HTB-26) (breast).

MDA-MB-231 = assay: In vitro cytotoxicity (GI50), breast cancer cell line; assay type: cell-based
Description: as §1

NCI-H460 = assay: In vitro cytotoxicity (GI50), non-small cell lung cell line; assay type: cell-based
Description: as §1

L1210 [3] = assay: In vitro cytotoxicity, leukemia cell line L1210; details: read-out: In vitro cytotoxicity, Leukemia L1210; Table 3
[4] = system: myelodysplatic syndrome (MDS); details: treated patients with MDS; cited from earlier work
cytidine deaminase = cytidine deaminase (Homo sapiens, UniProt P32320); details: deamination of the base to inactive uracil; cited from earlier work
[5] = following subcutaneous administration; cited from earlier work
[6] = system: various tumor cells lines, both solid and hematologic; details: available data; cited from earlier work
L1210 [7] = system: L1210

Chain of cytidine deaminase (P32320 whole entry, species assumed): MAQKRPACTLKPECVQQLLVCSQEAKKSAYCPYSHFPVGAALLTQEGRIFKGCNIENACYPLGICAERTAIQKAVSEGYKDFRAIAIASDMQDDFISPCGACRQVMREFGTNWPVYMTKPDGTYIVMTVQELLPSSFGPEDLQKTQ

For `NC1=NC(=O)N([C@@H]2O[C@H](CO)[C@@H](O)C2(F)F)CN1` [NUC014, 2′,2′-difluoro-5,6-dihydro-5-azadeoxycytidine], the “Cytotoxicity profile (in words)” value [1] was “less cytotoxic than NUC013”.

For `Nc1ncn([C@@H]2O[C@H](CO)[C@@H](O)C2(F)F)c(=O)n1` [NUC013, 2′,2′-difluoro-5-azadeoxycytidine], the “DNA methyltransferase inhibition (conclusion in words)” value [2] was “is an inhibitor of DNA methyltransferase” and the “Cytotoxicity profile (in words)” value [1] was “active against cell lines that are resistant to decitabine”.

`O=c1ncccn1[C@@H]1O[C@H](CO)[C@@H](O)C1(F)F` [NUC019, 2′-deoxy-2′,2′-difluorozebularine] gave an IC50 (HCT-116; Table 3, read-out: In vitro cytotoxicity, Colon HCT-116) of 310 µM, an IC50 (MDA-MB-231; Table 3, read-out: In vitro cytotoxicity, Breast MDA-MB-231) of 166 µM and an IC50 (NCI-H460; Table 3, read-out: In vitro cytotoxicity, NSCL NCI-H460) of 136 µM. It also gave an IC50 (L1210 [3]) of 321 µM.

In the case of `Nc1ncn([C@H]2C[C@H](O)[C@@H](CO)O2)c(=O)n1` [Decitabine, 5-azadeoxycytidine], the “Remissions or clinical improvements” value [4] is given as “remissions or clinical improvements in more than half of the treated patients”, the “Substrate for cytidine deaminase” value (cytidine deaminase) is given as “good substrates for cytidine deaminase” and the Half-life [5] is given as 30 min.

In the case of `Nc1ncn([C@@H]2O[C@H](CO)[C@@H](O)[C@H]2O)c(=O)n1` [Azacytidine, 5-azacytidine], the “Remissions or clinical improvements” value [4] is listed as “remissions or clinical improvements in more than half of the treated patients”.

In the case of `NC1=NC(=O)N([C@H]2C[C@H](O)[C@@H](CO)O2)CN1` [DHADC, 5,6-dihydro-5-aza-2′-deoxycytidine], the “Cytotoxicity compared to decitabine” value [6] is given as “lesser cytotoxicity”.

With `O=c1ncccn1[C@H]1O[C@H](CO)[C@@H](O)C1(F)F` [NUC020] the IC50 (L1210 [7]) was 346 µM, the IC50 (HCT-116) was 279 µM and the IC50 (MDA-MB-231) was 213 µM. For the same molecule, the IC50 (NCI-H460) was 136 µM.
